Assays:
[1] = system: Cyperus iria; experiment: Preemergence weed control under flooded paddy conditions, CYPIR (Rice Flatsedge); format: in vivo; details: flooded paddy; for herbicidal effect rating, CYPIR / CYPIR herbicidal effect rating: preemergence, rated three to four weeks after treatment; for CYPIR: preemergence weeds, herbicidal effect rating 0-9, three to four weeks after treatment; for herbicidal effect rating, CYPIR: meaning of each grade not given here
[2] = system: Monochoria vaginalis, Presl.; experiment: Preemergence weed control under flooded paddy conditions, MOOVA (Monochoria); format: in vivo; details: flooded paddy; for herbicidal effect rating, MOOVA / MOOVA herbicidal effect rating: preemergence, rated three to four weeks after treatment; for MOOVA: preemergence weeds, herbicidal effect rating 0-9, three to four weeks after treatment; for herbicidal effect rating, MOOVA: meaning of each grade not given here
[3] = system: Sagittaria pygmaea, L.; experiment: Preemergence weed control under flooded paddy conditions, SAGPY (Arrowhead (Pygmaea)); format: in vivo; details: flooded paddy; for herbicidal effect rating, SAGPY / SAGPY herbicidal effect rating: preemergence, rated three to four weeks after treatment; for SAGPY: preemergence weeds, herbicidal effect rating 0-9, three to four weeks after treatment; for herbicidal effect rating, SAGPY: meaning of each grade not given here
[4] = system: Oryza sativa, (L.) Tebonnet; experiment: Rice tolerance to post-transplant applications under flooded paddy conditions (Example 187), ORYSAT (Rice, Tebonnet); details: for herbicidal effect rating ORYSAT / ORYSAT herbicidal effect rating: rated three to four weeks after treatment; for ORYSAT: herbicidal effect rating 0-9, three to four weeks after treatment; for herbicidal effect rating ORYSAT: meaning of each grade not given here
[5] = system: Echinochloa oryzoides (Ard.) Fritsch.; experiment: Preemergence weed control under flooded paddy conditions, ECHORC (Watergrass (Calif.)); format: in vivo; details: flooded paddy; for herbicidal effect rating, ECHORC / ECHORC herbicidal effect rating: preemergence, rated three to four weeks after treatment; for ECHORC: preemergence weeds, herbicidal effect rating 0-9, three to four weeks after treatment; for herbicidal effect rating, ECHORC: meaning of each grade not given here
[6] = system: Cyperus serotinus, Rottb.; experiment: Preemergence weed control under flooded paddy conditions, CYPSE (Flatsedge); format: in vivo; details: for herbicidal effect rating, CYPSE / CYPSE herbicidal effect rating: preemergence, rated three to four weeks after treatment; for CYPSE: preemergence weeds, herbicidal effect rating 0-9, three to four weeks after treatment; for herbicidal effect rating, CYPSE: meaning of each grade not given here

Structure (SMILES): CC(=O)NCCOC(=O)c1nsc2ccc(-n3c(=O)cc(C(F)(F)F)n(C)c3=O)cc12 [Example 387, 1,2-Benzisothiazole-3-carboxylic acid, 5-[3,6-dihydro-3-methyl-2,6-dioxo-4-(trifluoromethyl)-1(2H)-pyrimidinyl]-, 2-acetamidoethyl ester]
- herbicidal effect rating, CYPIR ([1]; Rate 0.0320 kg/ha): 0.0
- herbicidal effect rating, CYPIR ([1]; Rate 0.0620 kg/ha): 5.0
- herbicidal effect rating, CYPIR ([1]; Rate 0.1250 kg/ha): 6.0
- herbicidal effect rating, CYPIR ([1]; Rate 0.2500 kg/ha): 7.0
- herbicidal effect rating, MOOVA ([2]; Rate 0.0320 kg/ha): 4.0
- herbicidal effect rating, MOOVA ([2]; Rate 0.0620 kg/ha): 9.0
- herbicidal effect rating, MOOVA ([2]; Rate 0.1250 kg/ha): 9.0
- herbicidal effect rating, MOOVA ([2]; Rate 0.2500 kg/ha): 9.0
- herbicidal effect rating, SAGPY ([3]; Rate 0.0320 kg/ha): 3.0
- herbicidal effect rating, SAGPY ([3]; Rate 0.0620 kg/ha): 4.0
- herbicidal effect rating, SAGPY ([3]; Rate 0.1250 kg/ha): 5.0
- herbicidal effect rating, SAGPY ([3]; Rate 0.2500 kg/ha): 6.0
- herbicidal effect rating ORYSAT ([4]; Rate 0.0320 kg/ha): 0.0
- herbicidal effect rating ORYSAT ([4]; Rate 0.0620 kg/ha): 0.0
- herbicidal effect rating ORYSAT ([4]; Rate 0.1250 kg/ha): 2.0
- herbicidal effect rating ORYSAT ([4]; Rate 0.2500 kg/ha): 2.0
- herbicidal effect rating, ECHORC ([5]; Rate 0.0320 kg/ha): 0.0
- herbicidal effect rating, ECHORC ([5]; Rate 0.0620 kg/ha): 0.0
- herbicidal effect rating, ECHORC ([5]; Rate 0.1250 kg/ha): 0.0
- herbicidal effect rating, ECHORC ([5]; Rate 0.2500 kg/ha): 3.0
- herbicidal effect rating, CYPSE ([6]; Rate 0.0320 kg/ha): 2.0
- herbicidal effect rating, CYPSE ([6]; Rate 0.0620 kg/ha): 5.0
- herbicidal effect rating, CYPSE ([6]; Rate 0.1250 kg/ha): 5.0
- herbicidal effect rating, CYPSE ([6]; Rate 0.2500 kg/ha): 5.0

Structure (SMILES): Cn1c(C(F)(F)F)cc(=O)n(-c2ccc3snc(COCc4ccc(Cl)c(Cl)c4)c3c2)c1=O [Example 586, 2,4(1H,3H)-Pyrimidinedione, 3-{3-{[(3,4-dichlorobenzyl)oxy]methyl}-1,2-benzisothiazol-5-yl}-1-methyl-6-(trifluoromethyl)-]
- herbicidal effect rating, CYPIR ([1]; Rate 0.0320 kg/ha): 8.0
- herbicidal effect rating, CYPIR ([1]; Rate 0.0620 kg/ha): 8.5
- herbicidal effect rating, CYPIR ([1]; Rate 0.1250 kg/ha): 9.0
- herbicidal effect rating, CYPIR ([1]; Rate 0.2500 kg/ha): 9.0
- herbicidal effect rating, MOOVA ([2]; Rate 0.0320 kg/ha): 9.0
- herbicidal effect rating, MOOVA ([2]; Rate 0.0620 kg/ha): 6.5
- herbicidal effect rating, MOOVA ([2]; Rate 0.1250 kg/ha): 9.0
- herbicidal effect rating, MOOVA ([2]; Rate 0.2500 kg/ha): 9.0
- herbicidal effect rating, SAGPY ([3]; Rate 0.0320 kg/ha): 0.0
- herbicidal effect rating, SAGPY ([3]; Rate 0.0620 kg/ha): 0.0
- herbicidal effect rating, SAGPY ([3]; Rate 0.1250 kg/ha): 0.0
- herbicidal effect rating, SAGPY ([3]; Rate 0.2500 kg/ha): 0.0
- herbicidal effect rating ORYSAT ([4]; Rate 0.0320 kg/ha): 1.0
- herbicidal effect rating ORYSAT ([4]; Rate 0.0620 kg/ha): 2.0
- herbicidal effect rating ORYSAT ([4]; Rate 0.1250 kg/ha): 2.0
- herbicidal effect rating ORYSAT ([4]; Rate 0.2500 kg/ha): 2.0
- herbicidal effect rating, ECHORC ([5]; Rate 0.0320 kg/ha): 8.0
- herbicidal effect rating, ECHORC ([5]; Rate 0.0620 kg/ha): 9.0
- herbicidal effect rating, ECHORC ([5]; Rate 0.1250 kg/ha): 9.0
- herbicidal effect rating, ECHORC ([5]; Rate 0.2500 kg/ha): 9.0
- herbicidal effect rating, CYPSE ([6]; Rate 0.0320 kg/ha): 0.0
- herbicidal effect rating, CYPSE ([6]; Rate 0.0620 kg/ha): 0.0
- herbicidal effect rating, CYPSE ([6]; Rate 0.1250 kg/ha): 4.5
- herbicidal effect rating, CYPSE ([6]; Rate 0.2500 kg/ha): 4.5

Structure (SMILES): C#CCOC(=O)COc1c(-c2nsc3ccc(-n4c(=O)cc(C(F)(F)F)n(C)c4=O)cc23)ccc(C)c1C [Example 280, Acetic acid, {{6-[5-[3,6-dihydro-3-methyl-2,6-dioxo-4-(trifluoromethyl)-1(2H)-pyrimidinyl]-1,2-benzisothiazol-3-yl}-2,3-xylyl}oxy}-, 2-propynyl ester]
- CYPIR herbicidal effect rating ([1]; Rate 0.0320 kg/ha): 2.0
- CYPIR herbicidal effect rating ([1]; Rate 0.0620 kg/ha): 6.0
- CYPIR herbicidal effect rating ([1]; Rate 0.1250 kg/ha): 8.0
- CYPIR herbicidal effect rating ([1]; Rate 0.2500 kg/ha): 9.0
- CYPIR herbicidal effect rating ([1]; Rate 0.5000 kg/ha): 9.0
- MOOVA herbicidal effect rating ([2]; Rate 0.0320 kg/ha): 9.0
- MOOVA herbicidal effect rating ([2]; Rate 0.0620 kg/ha): 9.0
- MOOVA herbicidal effect rating ([2]; Rate 0.1250 kg/ha): 9.0
- MOOVA herbicidal effect rating ([2]; Rate 0.2500 kg/ha): 9.0
- MOOVA herbicidal effect rating ([2]; Rate 0.5000 kg/ha): 9.0
- SAGPY herbicidal effect rating ([3]; Rate 0.0320 kg/ha): 0.0
- SAGPY herbicidal effect rating ([3]; Rate 0.0620 kg/ha): 0.0
- SAGPY herbicidal effect rating ([3]; Rate 0.1250 kg/ha): 2.0
- SAGPY herbicidal effect rating ([3]; Rate 0.2500 kg/ha): 9.0
- SAGPY herbicidal effect rating ([3]; Rate 0.5000 kg/ha): 9.0
- ORYSAT herbicidal effect rating ([4]; Rate 0.0320 kg/ha): 3.0
- ORYSAT herbicidal effect rating ([4]; Rate 0.0620 kg/ha): 3.0
- ORYSAT herbicidal effect rating ([4]; Rate 0.1250 kg/ha): 7.0
- ORYSAT herbicidal effect rating ([4]; Rate 0.2500 kg/ha): 8.0
- ORYSAT herbicidal effect rating ([4]; Rate 0.5000 kg/ha): 9.0
- ECHORC herbicidal effect rating ([5]; Rate 0.0320 kg/ha): 0.0
- ECHORC herbicidal effect rating ([5]; Rate 0.0620 kg/ha): 5.7
- ECHORC herbicidal effect rating ([5]; Rate 0.1250 kg/ha): 7.6
- ECHORC herbicidal effect rating ([5]; Rate 0.2500 kg/ha): 9.0
- ECHORC herbicidal effect rating ([5]; Rate 0.5000 kg/ha): 9.0
- CYPSE herbicidal effect rating ([6]; Rate 0.0320 kg/ha): 0.0
- CYPSE herbicidal effect rating ([6]; Rate 0.0620 kg/ha): 0.0
- CYPSE herbicidal effect rating ([6]; Rate 0.1250 kg/ha): 0.0
- CYPSE herbicidal effect rating ([6]; Rate 0.2500 kg/ha): 2.0
- CYPSE herbicidal effect rating ([6]; Rate 0.5000 kg/ha): 3.0

Structure (SMILES): Cn1c(C(F)(F)F)cc(=O)n(-c2ccc3snc(/C=N/O)c3c2)c1=O [Example 278, 1,2-Benzisothiazole-3-carboxaldehyde, 5-[3,6-dihydro-3-methyl-2,6-dioxo-4-(trifluoromethyl)-1(2H)-pyrimidinyl]-, 3-oxime, (E)-]
- CYPIR herbicidal effect rating ([1]; Rate 0.0320 kg/ha): 0.0
- CYPIR herbicidal effect rating ([1]; Rate 0.0620 kg/ha): 2.0
- CYPIR herbicidal effect rating ([1]; Rate 0.1250 kg/ha): 7.0
- CYPIR herbicidal effect rating ([1]; Rate 0.2500 kg/ha): 9.0
- CYPIR herbicidal effect rating ([1]; Rate 0.5000 kg/ha): 9.0
- MOOVA herbicidal effect rating ([2]; Rate 0.0320 kg/ha): 6.0
- MOOVA herbicidal effect rating ([2]; Rate 0.0620 kg/ha): 8.0
- MOOVA herbicidal effect rating ([2]; Rate 0.1250 kg/ha): 9.0
- MOOVA herbicidal effect rating ([2]; Rate 0.2500 kg/ha): 9.0
- MOOVA herbicidal effect rating ([2]; Rate 0.5000 kg/ha): 9.0
- SAGPY herbicidal effect rating ([3]; Rate 0.0320 kg/ha): 0.0
- SAGPY herbicidal effect rating ([3]; Rate 0.0620 kg/ha): 0.0
- SAGPY herbicidal effect rating ([3]; Rate 0.1250 kg/ha): 0.0
- SAGPY herbicidal effect rating ([3]; Rate 0.2500 kg/ha): 2.0
- SAGPY herbicidal effect rating ([3]; Rate 0.5000 kg/ha): 9.0
- ORYSAT herbicidal effect rating ([4]; Rate 0.0320 kg/ha): 2.0
- ORYSAT herbicidal effect rating ([4]; Rate 0.0620 kg/ha): 3.0
- ORYSAT herbicidal effect rating ([4]; Rate 0.1250 kg/ha): 4.0
- ORYSAT herbicidal effect rating ([4]; Rate 0.2500 kg/ha): 7.0
- ORYSAT herbicidal effect rating ([4]; Rate 0.5000 kg/ha): 8.0
- ECHORC herbicidal effect rating ([5]; Rate 0.0320 kg/ha): 0.0
- ECHORC herbicidal effect rating ([5]; Rate 0.0620 kg/ha): 6.1
- ECHORC herbicidal effect rating ([5]; Rate 0.1250 kg/ha): 7.4
- ECHORC herbicidal effect rating ([5]; Rate 0.2500 kg/ha): 8.0
- ECHORC herbicidal effect rating ([5]; Rate 0.5000 kg/ha): 9.0
- CYPSE herbicidal effect rating ([6]; Rate 0.0320 kg/ha): 0.0
- CYPSE herbicidal effect rating ([6]; Rate 0.0620 kg/ha): 0.0
- CYPSE herbicidal effect rating ([6]; Rate 0.1250 kg/ha): 2.0
- CYPSE herbicidal effect rating ([6]; Rate 0.2500 kg/ha): 4.0
- CYPSE herbicidal effect rating ([6]; Rate 0.5000 kg/ha): 9.0

Structure (SMILES): CN(C)/N=C/c1nsc2ccc(-n3c(=O)cc(C(F)(F)F)n(C)c3=O)cc12 [Example 409, 1,2-Benzisothiazole-3-carboxaldehyde, 5-[3,6-dihydro-3-methyl-2,6-dioxo-4-(trifluoromethyl)-1(2H)-pyrimidinyl]-, 3-(dimethylhydrazone), (E)-]
- CYPIR ([1]; 0.0320 kg/ha): 7.0
- CYPIR ([1]; 0.0620 kg/ha): 9.0
- CYPIR ([1]; 0.1250 kg/ha): 9.0
- CYPIR ([1]; 0.2500 kg/ha): 9.0
- MOOVA ([2]; 0.0320 kg/ha): 9.0
- MOOVA ([2]; 0.0620 kg/ha): 9.0
- MOOVA ([2]; 0.1250 kg/ha): 9.0
- MOOVA ([2]; 0.2500 kg/ha): 9.0
- SAGPY ([3]; 0.0320 kg/ha): 2.0
- SAGPY ([3]; 0.0620 kg/ha): 4.0
- SAGPY ([3]; 0.1250 kg/ha): 7.0
- SAGPY ([3]; 0.2500 kg/ha): 9.0
- ORYSAT ([4]; 0.0320 kg/ha): 3.0
- ORYSAT ([4]; 0.0620 kg/ha): 5.0
- ORYSAT ([4]; 0.1250 kg/ha): 7.0
- ORYSAT ([4]; 0.2500 kg/ha): 9.0
- ECHORC ([5]; 0.0320 kg/ha): 3.0
- ECHORC ([5]; 0.0620 kg/ha): 4.0
- ECHORC ([5]; 0.1250 kg/ha): 9.0
- ECHORC ([5]; 0.2500 kg/ha): 9.0
- CYPSE ([6]; 0.0320 kg/ha): 2.0
- CYPSE ([6]; 0.0620 kg/ha): 5.0
- CYPSE ([6]; 0.1250 kg/ha): 9.0
- CYPSE ([6]; 0.2500 kg/ha): 9.0

Source: EP0908457B1, “3-(1,2-benzisothiazol- and isoxazol-5-Y1)-2,4(1H,3H)-pyrimidinedione or thione and 3-(1,2-benzisothiazol- and isoxazol-5-y1)-4(3H)-pyrimidinone or thione herbicidal agents” (BASF AKTIENGESELLSCHAFT, priority 1997, dated 1999)
